Test results from US4552843A, “Process for producing an acidic polycyclic ether antibiotic by cultivation of a novel strain of Streptomyces endus subspecies aureus” (Pfizer Inc., priority 1984, dated 1985).

Key:
Eimeria tenella = assay: efficacy against coccidial infections in chickens (Table II); type: in vivo; settings: for Ratio: lesion score treated / infected control; for % Weight Gain / Average Degree of Infection: chicks; for Average Degree of Infection: lesion score 0 to 4, six days
Protocol: (§1) Efficacy data for Antibiotic CP-63,517 and its salts against coccidial infections in chickens was obtained in the following fashion. Groups of 3-5 ten-day old SPF white leghorn cockerel chicks were fed a mash diet containing Antibiotic CP-63,517, its sodium and/or potassium salt, or the known agents Monensin or Stenorol uniformly dispersed therein. After being on this ration for 24 hours each chick was inoculated per os with oocysts of the particular species of Eimeria being tested. Other groups of 3-5 ten-day old chicks were fed a similar mash diet free of any test compound. They were also infected after 24 hours and served as infected controls. Yet another group of 3-5 ten-day old chicks were fed the mash diet free of any test compound and were not infected with coccidia. These served as normal controls. The results of treatment were evaluated after five days in the case of E. acervulina, and six days for other challenges.
(§2) ^1 The criteria used to measure anticoccidial activity consisted of
(§3) lesion scores of 0 to 4 for Eimeria tenella after J. E. Lynch, "A New
(§4) Method for the Primary Evaluation of Anticoccidial Activity", Am. J. Vet.
(§5) modification of the scoring system devised by J. Johnson and W. H. Reid,
(§6) "Anticoccidial Drugs. Lesion Scoring Techniques in Battery and Floor Pen
(§7) Experiments in Chicks", Exp. Parasit. 28: 30-36 (1970). A constant ratio
(§8) was established by dividing the lesion score of each treated group by the
(§9) lesion score of the infected control.

rumen fluid = assay: in vitro rumen technique, propionic acid production; design: species or system calf
Protocol: The value of animal feeds generally has been determined directly by feeding the animal. British Pat. No. 1,197,826 details an in vitro rumen technique whereby the changes occurring in feeds brought about by microorganisms are measured more readily and with great accuracy in the evaluation of animal feeds. This technique involves the use of an apparatus in which the digestive processes of the animals are conducted and studied in vitro. The animal feeds, rumen inoculum and various growth promotants are introduced into and withdrawn from a laboratory unit under carefully controlled conditions and the changes taken place are studied critically and progressively during the consumption of the feed by the microorganisms. […] The change in propionic acid content is expressed as percent of the propionic acid content found in the control rumen fluid. Long term in vivo feeding studies are used to show a reliable correlation between propionic acid increase in the rumen fluid and improved animal performance.
Rumen fluid is collected from a fistulated calf which is fed on a commercial fattening ration plus hay. The rumen fluid is immediately filtered through cheese cloth, and 10 ml added to a 50 ml conical flask containing 400 mg of standard substrate (68% corn starch +17% cellulose +15% extracted soybean meal), 10 ml of a pH 6.8 buffer and the test compound. The flasks are gassed with oxygen free nitrogen for about two minutes, and incubated in a shaking water bath at 39° C. for about 16 hours. All tests are conducted in triplicate.
After incubation, 5 ml of the sample is mixed with 1 ml of 25% metaphosphoric acid. After 10 minutes 0.25 ml of formic acid is added and the mixture centrifuged at 1500 RPM for 10 minutes. Samples are then analyzed by gas-liquid chromatography by the method of D. W. Kellog, J. Dairy Science, 52, 1690 (1969). Peak heights for acetic, propionic and butyric acids are determined for samples from untreated and treated incubation flasks.

Eimeria acervulina = assay: efficacy against coccidial infections in chickens (Table II); type: in vivo; settings: 9 ppm in diet; for Ratio: lesion score treated / infected control; for % Weight Gain / Average Degree of Infection: chicks; for Average Degree of Infection: lesion score 0 to 3, five days
Protocol: as §1, §2, §3, §4, §5, §6, §7, §8, §9

[1] = 53 ppm in diet, replicate (in parentheses)
[2] = 120 ppm in diet, replicate (in parentheses)
[3] = 0.75 ppm in diet, replicate (in parentheses)
[4] = 3 ppm in diet, replicate (in parentheses)
[5] = 9 ppm in diet, replicate (in parentheses)

## CC[C@@]1([C@@H]2O[C@@H]([C@H]3O[C@@](O)(CO)[C@H](C)C[C@@H]3C)C[C@@H]2C)CC[C@H]([C@]2(C)CC[C@]3(C[C@H](O)[C@@H](C)[C@@H]([C@@H](C)[C@@H](OC)[C@H](C)C(=O)O)O3)O2)O1 [Monensin]
Eimeria tenella; 53 ppm in diet
  Ratio: 0.69
  % Weight Gain: 92%
  Average Degree of Infection: 2.3
Eimeria tenella; [1]
  Ratio: 0.54
  Average Degree of Infection: 1.7
  % Weight Gain: 99%
Eimeria tenella; 120 ppm in diet
  Ratio: 0.09
  % Weight Gain: 71%
  Average Degree of Infection: 0.3
Eimeria tenella; [2]
  Ratio: 0.32
  Average Degree of Infection: 1.0
  % Weight Gain: 68%
Rumen fluid; 10 micrograms per milliliter (10 μg/ml), comparison with Monensin
  increase in production of propionic acid over control: about 20%

## CC[C@@H](C(=O)[C@@H](C)[C@@H](O)[C@H](C)[C@@H]1O[C@@H]([C@@H](CC)C(=O)O)CC[C@@H]1C)[C@H]1O[C@]2(C=C[C@@H](O)[C@]3(CC[C@@](C)([C@H]4CC[C@](O)(CC)[C@H](C)O4)O3)O2)[C@H](C)C[C@@H]1C [Salinomycin, reference compound]
Rumen fluid; 10 μg/ml, comparison with Salinomycin
  increase in propionic acid: about 65%

## O=C(CC1NCCCC1O)Cn1cnc2cc(Br)c(Cl)cc2c1=O (centres unmarked) [Stenorol]
Eimeria acervulina
  Ratio: 0.0
  % Weight Gain: 48%
  Average Degree of Infection: 0.0
Eimeria acervulina; replicate (in parentheses)
  Ratio: 0.0
  Average Degree of Infection: 0.0
  % Weight Gain: 51%
Eimeria tenella; 0.75 ppm in diet
  Ratio: 0.51
  % Weight Gain: 66%
  Average Degree of Infection: 1.7
Eimeria tenella; [3]
  Ratio: 0.73
  Average Degree of Infection: 2.3
  % Weight Gain: 90%
Eimeria tenella; 3 ppm in diet
  Ratio: 0.0
  % Weight Gain: 86%
  Average Degree of Infection: 0.0
Eimeria tenella; [4]
  Ratio: 0.0
  Average Degree of Infection: 0.0
  % Weight Gain: 103%
Eimeria tenella; 9 ppm in diet
  Ratio: 0.0
  % Weight Gain: 63%
  Average Degree of Infection: 0.0
Eimeria tenella; [5]
  Ratio: 0.0
  Average Degree of Infection: 0.0
  % Weight Gain: 77%
